From the NIST ThermoML archive (doi:10.1016/j.jct.2011.11.021)
± gives the expanded uncertainty stated by the source.

Assay: activity coefficient (dimensionless); of the first substance listed, at infinite dilution; xn = mol fraction of the nth substance listed
Settings: Liquid, Chromatography, x1 = 0

Row | SMILES | activity coefficient (318.15 K) | activity coefficient (328.15 K) | activity coefficient (338.15 K) | activity coefficient (348.15 K) | activity coefficient (358.15 K) | activity coefficient (368.15 K)
1 | Cc1ccccc1C [1,2-dimethylbenzene] + COCC[N+]1(C)CCOCC1.O=S(=O)([N-]S(=O)(=O)C(F)(F)F)C(F)(F)F | 2.75 ± 0.19 | 2.71 ± 0.18 | 2.68 ± 0.18 | 2.65 ± 0.18 | 2.61 ± 0.18 | 2.58 ± 0.18
2 | Cc1cccc(C)c1 [1,3-dimethylbenzene] + COCC[N+]1(C)CCOCC1.O=S(=O)([N-]S(=O)(=O)C(F)(F)F)C(F)(F)F | 3.05 ± 0.21 | 3.02 ± 0.21 | 2.99 ± 0.2 | 2.97 ± 0.2 | 2.94 ± 0.2 | 2.92 ± 0.2
3 | Cc1ccc(C)cc1 [1,4-dimethylbenzene] + COCC[N+]1(C)CCOCC1.O=S(=O)([N-]S(=O)(=O)C(F)(F)F)C(F)(F)F | 3.09 ± 0.21 | 3.06 ± 0.21 | 3.03 ± 0.21 | 3 ± 0.2 | 2.98 ± 0.2 | 2.96 ± 0.2
4 | C1COCCO1 [1,4-dioxane] + COCC[N+]1(C)CCOCC1.O=S(=O)([N-]S(=O)(=O)C(F)(F)F)C(F)(F)F | 0.57 ± 0.041 | 0.596 ± 0.042 | 0.615 ± 0.043 | 0.638 ± 0.044 | 0.653 ± 0.045 | 0.674 ± 0.046
5 | C=CCCCCCCCC [1-decene] + COCC[N+]1(C)CCOCC1.O=S(=O)([N-]S(=O)(=O)C(F)(F)F)C(F)(F)F | 87.8 ± 6 | 78.8 ± 5.4 | 72.1 ± 4.9 | 65.7 ± 4.5 | 59.4 ± 4.1 | 54.9 ± 3.8
6 | C=CCCCCC [1-heptene] + COCC[N+]1(C)CCOCC1.O=S(=O)([N-]S(=O)(=O)C(F)(F)F)C(F)(F)F | 24.9 ± 1.7 | 23 ± 1.6 | 21.7 ± 1.5 | 20.3 ± 1.4 | 19 ± 1.3 | 18.1 ± 1.2
7 | C#CCCCCC [1-heptyne] + COCC[N+]1(C)CCOCC1.O=S(=O)([N-]S(=O)(=O)C(F)(F)F)C(F)(F)F | 7.44 ± 0.51 | 7.24 ± 0.49 | 7.09 ± 0.48 | 6.94 ± 0.47 | 6.79 ± 0.46 | 6.65 ± 0.45
8 | C#CCCCC [1-hexyne] + COCC[N+]1(C)CCOCC1.O=S(=O)([N-]S(=O)(=O)C(F)(F)F)C(F)(F)F | 4.88 ± 0.33 | 4.8 ± 0.33 | 4.75 ± 0.32 | 4.7 ± 0.32 | 4.65 ± 0.32 | 4.61 ± 0.31
9 | CCC[N+](=O)[O-] [1-nitropropane] + COCC[N+]1(C)CCOCC1.O=S(=O)([N-]S(=O)(=O)C(F)(F)F)C(F)(F)F |  | 0.791 ± 0.051 | 0.787 ± 0.051 | 0.783 ± 0.051 | 0.78 ± 0.051 | 0.778 ± 0.051
10 | C#CCCCCCC [1-octyne] + COCC[N+]1(C)CCOCC1.O=S(=O)([N-]S(=O)(=O)C(F)(F)F)C(F)(F)F | 11.4 ± 0.8 | 11 ± 0.8 | 10.6 ± 0.7 | 10.3 ± 0.7 | 9.93 ± 0.68 | 9.67 ± 0.66
11 | C=CCCC [1-pentene] + COCC[N+]1(C)CCOCC1.O=S(=O)([N-]S(=O)(=O)C(F)(F)F)C(F)(F)F | 11 ± 0.8 | 10.3 ± 0.7 | 9.79 ± 0.67 | 9.25 ± 0.63 | 8.83 ± 0.6 | 8.35 ± 0.57
12 | CC(C)CC(C)(C)C [2,2,4-trimethylpentane] + COCC[N+]1(C)CCOCC1.O=S(=O)([N-]S(=O)(=O)C(F)(F)F)C(F)(F)F | 55.9 ± 3.8 | 49.5 ± 3.4 | 45 ± 3.1 | 40.8 ± 2.8 | 37.2 ± 2.5 | 34.1 ± 2.3
13 | CCC(C)(C)C [2,2-dimethylbutane] + COCC[N+]1(C)CCOCC1.O=S(=O)([N-]S(=O)(=O)C(F)(F)F)C(F)(F)F | 32.4 ± 2.2 | 28.4 ± 1.9 | 25.7 ± 1.8 | 23.2 ± 1.6 | 21.2 ± 1.4 | 19.5 ± 1.3
14 | CCOC(C)(C)C [2-ethoxy-2-methylpropane] + COCC[N+]1(C)CCOCC1.O=S(=O)([N-]S(=O)(=O)C(F)(F)F)C(F)(F)F | 9.5 ± 0.65 | 9.21 ± 0.63 | 8.97 ± 0.61 | 8.75 ± 0.6 | 8.49 ± 0.58 | 8.3 ± 0.57
15 | CCC(C)(C)OC [2-methoxy-2-methylbutane] + COCC[N+]1(C)CCOCC1.O=S(=O)([N-]S(=O)(=O)C(F)(F)F)C(F)(F)F | 5.55 ± 0.38 | 5.5 ± 0.37 | 5.43 ± 0.37 | 5.37 ± 0.37 | 5.32 ± 0.36 | 5.28 ± 0.36
16 | COC(C)(C)C [2-methoxy-2-methylpropane] + COCC[N+]1(C)CCOCC1.O=S(=O)([N-]S(=O)(=O)C(F)(F)F)C(F)(F)F | 3.53 ± 0.24 | 3.55 ± 0.24 | 3.57 ± 0.24 | 3.58 ± 0.24 | 3.59 ± 0.24 | 3.6 ± 0.25

Row | SMILES | activity coefficient (318.15 K) | activity coefficient (328.15 K) | activity coefficient (338.15 K) | activity coefficient (348.15 K) | activity coefficient (358.15 K) | activity coefficient (368.15 K)
17 | CC(C)CO [2-methyl-1-propanol] + COCC[N+]1(C)CCOCC1.O=S(=O)([N-]S(=O)(=O)C(F)(F)F)C(F)(F)F | 3.19 ± 0.22 | 2.81 ± 0.19 | 2.51 ± 0.17 | 2.25 ± 0.15 | 2.04 ± 0.14 | 1.89 ± 0.13
18 | CC(C)(C)O [2-methylpropan-2-ol] + COCC[N+]1(C)CCOCC1.O=S(=O)([N-]S(=O)(=O)C(F)(F)F)C(F)(F)F | 2.22 ± 0.15 | 2.03 ± 0.14 | 1.88 ± 0.13 | 1.75 ± 0.12 | 1.62 ± 0.11 | 1.52 ± 0.1
19 | CCC(C)CC [3-methylpentane] + COCC[N+]1(C)CCOCC1.O=S(=O)([N-]S(=O)(=O)C(F)(F)F)C(F)(F)F | 32.3 ± 2.2 | 29 ± 2 | 26.3 ± 1.8 | 23.9 ± 1.6 | 21.9 ± 1.5 | 20.2 ± 1.4
20 | C=C(C)c1ccccc1 [(1-methylethenyl)benzene] + COCC[N+]1(C)CCOCC1.O=S(=O)([N-]S(=O)(=O)C(F)(F)F)C(F)(F)F |  | 2.74 ± 0.19 | 2.76 ± 0.19 | 2.78 ± 0.19 | 2.79 ± 0.19 | 2.81 ± 0.19
21 | CC(=O)O [acetic acid] + COCC[N+]1(C)CCOCC1.O=S(=O)([N-]S(=O)(=O)C(F)(F)F)C(F)(F)F |  | 0.451 ± 0.036 | 0.456 ± 0.036 | 0.459 ± 0.036 | 0.465 ± 0.036 | 0.468 ± 0.037
22 | CC(C)=O [acetone] + COCC[N+]1(C)CCOCC1.O=S(=O)([N-]S(=O)(=O)C(F)(F)F)C(F)(F)F | 0.43 ± 0.035 | 0.442 ± 0.036 | 0.451 ± 0.036 | 0.461 ± 0.036 | 0.47 ± 0.037 | 0.48 ± 0.037
23 | CC#N [acetonitrile] + COCC[N+]1(C)CCOCC1.O=S(=O)([N-]S(=O)(=O)C(F)(F)F)C(F)(F)F | 0.423 ± 0.035 | 0.426 ± 0.035 | 0.428 ± 0.035 | 0.431 ± 0.035 | 0.433 ± 0.035 | 0.436 ± 0.035
24 | c1ccccc1 [benzene] + COCC[N+]1(C)CCOCC1.O=S(=O)([N-]S(=O)(=O)C(F)(F)F)C(F)(F)F | 1.33 ± 0.09 | 1.32 ± 0.09 | 1.32 ± 0.09 | 1.32 ± 0.09 | 1.31 ± 0.09 | 1.31 ± 0.09
25 | CCCCO [butan-1-ol] + COCC[N+]1(C)CCOCC1.O=S(=O)([N-]S(=O)(=O)C(F)(F)F)C(F)(F)F | 3.31 ± 0.23 | 2.94 ± 0.2 | 2.66 ± 0.18 | 2.4 ± 0.16 | 2.18 ± 0.15 | 2.02 ± 0.14
26 | CCC(C)O (centres undefined) [butan-2-ol] + COCC[N+]1(C)CCOCC1.O=S(=O)([N-]S(=O)(=O)C(F)(F)F)C(F)(F)F | 2.76 ± 0.19 | 2.47 ± 0.17 | 2.26 ± 0.15 | 2.06 ± 0.14 | 1.9 ± 0.13 | 1.78 ± 0.12
27 | CCCC=O [butanal] + COCC[N+]1(C)CCOCC1.O=S(=O)([N-]S(=O)(=O)C(F)(F)F)C(F)(F)F | 0.871 ± 0.056 | 0.884 ± 0.056 | 0.891 ± 0.057 | 0.902 ± 0.057 | 0.909 ± 0.058 | 0.918 ± 0.058
28 | C1CCCCCC1 [cycloheptane] + COCC[N+]1(C)CCOCC1.O=S(=O)([N-]S(=O)(=O)C(F)(F)F)C(F)(F)F | 26.2 ± 1.8 | 23.6 ± 1.6 | 21.5 ± 1.5 | 19.7 ± 1.3 | 18.1 ± 1.2 | 16.6 ± 1.1
29 | C1CCCCC1 [cyclohexane] + COCC[N+]1(C)CCOCC1.O=S(=O)([N-]S(=O)(=O)C(F)(F)F)C(F)(F)F | 18.8 ± 1.3 | 17 ± 1.2 | 15.6 ± 1.1 | 14.4 ± 1 | 13.3 ± 0.9 | 12.3 ± 0.8
30 | C1=CCCCC1 [cyclohexene] + COCC[N+]1(C)CCOCC1.O=S(=O)([N-]S(=O)(=O)C(F)(F)F)C(F)(F)F | 9.14 ± 0.62 | 8.62 ± 0.59 | 8.21 ± 0.56 | 7.84 ± 0.53 | 7.45 ± 0.51 | 7.08 ± 0.48
31 | C1CCCCCCC1 [cyclooctane] + COCC[N+]1(C)CCOCC1.O=S(=O)([N-]S(=O)(=O)C(F)(F)F)C(F)(F)F | 36.6 ± 2.5 | 32.6 ± 2.2 | 29.6 ± 2 | 26.7 ± 1.8 | 24.2 ± 1.7 | 22.1 ± 1.5
32 | C1CCCC1 [cyclopentane] + COCC[N+]1(C)CCOCC1.O=S(=O)([N-]S(=O)(=O)C(F)(F)F)C(F)(F)F | 12.2 ± 0.8 | 11.2 ± 0.8 | 10.4 ± 0.7 | 9.68 ± 0.66 | 9.1 ± 0.62 | 8.54 ± 0.58
